One assay concerns the target T1, PDE7A (Homo sapiens, UniProt Q13946).
T1 construct: host or cells: Sf9 insect cells
Put plainly: PDE7 enzymatic assay, IC50 determination (PDE7A). In kind it is biochemical. The conditions noted are these: human recombinant enzyme, 0.1 μM FAM-cAMP, 30 min 25° C. How it is done: (§1) The ability of compounds to inhibit PDE7 may be measured using the following assay protocal: Assay methods for IC50 determination of PDE7 and variants involve as enzyme source human recombinant insect Sf9 cells. The substrate is 0.1 μM FAM-cAMP and the vehicle is 1.0% DMSO or 1.0% PEG 400. Pre-incubation time and temperature are 15 minutes at 25° C. and incubation time and temperature are 30 minutes at 25° C. The incubation buffer consists of 10 mM Tris-HCl, PH 7.2, 10 mM MgCl2, 0.05% NaN3, and 0.1% phosphate-free BSA. The quantitation method used is spectrofluorimetric quantitation of Fluorescein-AMP-IMAP. IBMX reference standards are run as an integral part of each assay to ensure the validity of the results obtained. The IC50 is the concentration of the compound (inhibitor) tested in the assay which makes it possible to reduce the enzymatic activity of PDE7 by 50%. IC50 values are finally determined by a non-linear, least squares regression analysis using MathIQ™ (ID Business Solutions Ltd., UK).
(§2) The compounds to be tested as PDE7 inhibitors were initially dissolved in vehicle at a concentration of 30 mM. These solutions were tested as the highest test concentration and then further diluted in cascade always in a ratio of 1:6 to obtain solutions with the desired lower test concentrations. Each assay was carried out in duplicate.

The subject of assay [1] is isolated rat soleus muscle. Put plainly: Ex vivo model: residual contractile force of isolated rat soleus muscle in high KCl buffer (Na+/K+ATPase activation). The conditions noted are these: for Mean residual contractile force in % (SEM in %): after 30 min in KCl 12.5 mM buffer. An excerpt: Muscular fatigue and loss of force (e.g., loss of handgrip strength) is a hallmark in ME/CFS patients. A main target of PDE7 inhibition is the skeletal muscle whose energetic function is deeply disturbed in ME/CFS and which is presumed to be very important in the symptomatology of ME/CFS. Insufficient stimulation of the Na^+/K^+ATPase plays a key role in the development of the disturbances by a rise in intramuscular sodium that finally leads to calcium overload. The latter causes a deep functional energetic disturbance or damage. The isolated rat muscle either soleus muscle or extensor digitorum longus muscle is a well-characterized and well-validated model for the study of the function of the Na^+/K^+ATPase. The isolated rat soleus muscle is particularly appropriate for experiments ex vivo as it is very thin so that there is no need for blood supply. […] In the experimental setting used, the high KCl concentration buffer causes partial depolarization that leads to sodium influx to disturb and to decrease excitability to subsequently reduce muscle force. Stimulation of Na^+/K^+ATPase lowers intracellular sodium levels towards physiological levels to restore excitability and muscular force during electrical stimulation.
The decline in force in the soleus muscle can be considered as muscular fatigue and related to the loss of hand grip muscular strength in ME/CFS patients. As the phosphodiesterase isoenzyme subtype 7 (PDE7) is the predominant PDE isoenzyme in skeletal muscle to raise cAMP this ex vivo model is suited for the testing the effect of PDE7 inhibitors and in particular their effect on force generation disturbed by mechanisms that worsen excitability or the energetic situation. […] High level activity of Na^+/K^+ATPase stimulated by cAMP can counteract the decrease in excitability and the loss of force.
Muscle preparation and incubation: Female Sprague Dawley rats of 5 weeks of age were used. After isoflurane anesthesia and cervical dislocation the intact soleus muscles of the animals were dissected. The soleus muscles were mounted at resting length in a vertical position between two field stimulation electrodes (thick copper wires) in organ bathes containing 15 mL incubation medium. The lower end of the muscle was fixed to a clip fixed to the bottom of the organ bath, the upper end of the muscle was fixed to an isometric force transducer (Force transducer K300 Hugo Sachs) by a clip allowing measurement of isometric contractions, and a tension of 100 mN was applied.
Force measurement: The experimental set-up used for force measurements allowed for the simultaneous recordings from 6 muscles in separate incubation chambers in parallel. Force was recorded and stored with a Notocord HEM data acquisition system. […] Incubation took place at 30° C. […] Electrical stimulation protocol: After an equilibration period of 30 min muscles were field-stimulated to deliver optimal force at 83 Hz, 2-3 ms pulses, 12 V (biphasic), 0.2-0.5 s train width with a Hugo Sachs stimulator (HSE). […] Stimulations were then performed every 5 min for 30 min. […] Two control groups were included.
The residual contractile force after 30 min in high KCl buffer was chosen as the efficacy parameter and related to the last value of stimulated force in the initial buffer in the same organ bath. The percentages of residual force were compared between the different groups and used for statistical calculation.

For a further assay, the system named is PDE7. Put plainly: PDE7 enzymatic assay, IC50 determination (PDE7). In kind it is biochemical. The note with it: human recombinant enzyme, 0.1 μM FAM-cAMP, 30 min 25° C. As for the experimental part:
as §1, §2

A further assay has as its target T2, PDE7B (Homo sapiens, UniProt Q9NP56).
T2 construct: host or cells: Sf9 insect cells
Put plainly: PDE7 enzymatic assay, IC50 determination (PDE7B). It is filed as biochemical. The note with it: human recombinant enzyme, 0.1 μM FAM-cAMP, 30 min 25° C. As for the experimental part:
as §1, §2

A further assay has as its system PDE7 enzyme. The conditions noted are these: cited from earlier work.

T1 sequence (Q13946 whole entry): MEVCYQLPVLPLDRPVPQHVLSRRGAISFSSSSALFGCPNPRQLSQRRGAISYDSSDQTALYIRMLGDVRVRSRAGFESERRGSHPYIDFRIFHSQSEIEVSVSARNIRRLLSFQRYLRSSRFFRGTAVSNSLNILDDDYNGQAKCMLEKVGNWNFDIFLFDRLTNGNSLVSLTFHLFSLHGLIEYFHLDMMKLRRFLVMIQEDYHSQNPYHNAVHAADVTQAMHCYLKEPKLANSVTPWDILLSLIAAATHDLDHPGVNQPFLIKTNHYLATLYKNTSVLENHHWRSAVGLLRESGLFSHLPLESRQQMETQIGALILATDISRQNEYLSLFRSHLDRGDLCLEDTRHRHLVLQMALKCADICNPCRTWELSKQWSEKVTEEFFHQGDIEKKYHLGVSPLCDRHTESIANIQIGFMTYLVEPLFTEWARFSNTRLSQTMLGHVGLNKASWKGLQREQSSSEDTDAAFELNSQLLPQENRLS
T2 sequence (Q9NP56 whole entry): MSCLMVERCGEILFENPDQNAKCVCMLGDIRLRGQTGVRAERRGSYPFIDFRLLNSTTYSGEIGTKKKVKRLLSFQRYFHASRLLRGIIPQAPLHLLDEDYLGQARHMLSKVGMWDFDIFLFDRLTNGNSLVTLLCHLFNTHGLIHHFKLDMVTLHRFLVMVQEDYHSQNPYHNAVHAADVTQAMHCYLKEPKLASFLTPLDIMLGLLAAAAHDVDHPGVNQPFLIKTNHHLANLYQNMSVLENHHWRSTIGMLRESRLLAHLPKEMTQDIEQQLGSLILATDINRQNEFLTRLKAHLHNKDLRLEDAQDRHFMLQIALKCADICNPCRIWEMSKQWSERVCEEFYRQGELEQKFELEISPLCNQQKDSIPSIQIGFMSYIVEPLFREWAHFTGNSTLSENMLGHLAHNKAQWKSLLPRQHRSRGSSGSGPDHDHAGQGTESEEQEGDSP

Broadly, the IC50 is the point on the concentration scale where inhibition reaches its midpoint. On to `OCCN(CCO)c1nc(N2CCCCC2)c2nc(N(CCO)CCO)nc(N3CCCCC3)c2n1` [Dipyridamole, 2,2′,2″,2′″-[[4,8-Di(piperidin-1-yl)pyrimido[5,4-d]pyrimidine-2,6-diyl]dinitrilo]tetraethanol, reference compound], for which, at PDE7A, the IC50 came to 42000 nM. In addition, the “Mean residual contractile force in % (SEM in %)” value in assay [1] (30 μM in the presence of salbutamol 1 μM) is on record as 46.3 (6.3); n = 15; p < 0.01%. Moreover, the “effect on residual contractile force compared with salbutamol alone” value in assay [1] (test compound plus salbutamol 1 μM, KCl 12.5 mM buffer) is “numerically stronger effect than salbutamol alone”.

`Cc1nn(C2CCCCC2)c2sc(C(=O)Nc3ccc(N4CCNC4=O)nc3)cc12` [Formula No. 6A]: the IC50 in the assay on PDE7 was found to be 20 nM.

Regarding `CNC(=O)c1ccc(NC(=O)c2cc3c(C)nn(C4CCCCC4)c3s2)cn1` [Formula No. 6B], the IC50 at PDE7B was determined as 53 nM; with PDE7 it was 33 nM; at PDE7A it was 11.1 nM. The “Mean residual contractile force in % (SEM in %)” value in assay [1] (0.99 μM in the presence of salbutamol 1 μM) was 50.7 (3.6); n = 6; p < 0.05%.

Turning to `Cc1nn(C2CCCCC2)c2sc(C(=O)Nc3ccc(C(=O)N(C)C)cc3)cc12` [Formula No. 6C], the IC50 with PDE7 was 14 nM.

Take `CC(=O)Nc1ccc(NC(=O)c2cc3c(C)nn(C4CCCCC4)c3s2)cc1` [Formula No. 6D]: in the assay on PDE7, the IC50 is 37 nM.

Consider `Cc1nn(C2CCOCC2)c2sc(C(=O)N[C@H]3CC[C@H](N4CCOCC4)CC3)cc12` [Formula No. 6E], for which the IC50 in the assay on PDE7 was 24 nM.

For the compound `CC(=O)N1CCN([C@H]2CC[C@H](NC(=O)c3cc4c(C)nn(C5CCOCC5)c4s3)CC2)CC1` [Formula No. 6F], in the assay with PDE7, the IC50 was 19 nM.

Turning to `Cc1nn(C2CCCCC2)c2sc(C(=O)NCC(C)(C)CN3C(=O)CNC3=O)cc12` [Formula No. 6G], the IC50 in the assay with PDE7 amounted to 20 nM.

In the case of `Cc1nn(C2CCCCC2)c2sc(C(=O)N[C@H](C)CN3C(=O)CNC3=O)cc12` [Formula No. 6H], in the assay with PDE7, the IC50 is 34 nM.

Take `Cc1ccc([N+](=O)[O-])cc1S(=O)(=O)N(C)C` [Formula No. 8A]: the “Mean residual contractile force in % (SEM in %)” value in assay [1] (4.5 μM in the presence of salbutamol 1 μM) is listed as 80.2 (6.0); n = 15; p < 0.001%.

On to `O=C1Nc2c(Cl)ccc(Oc3ccccc3-c3nnn[nH]3)c2C2(CCCCC2)N1` [Formula No. 35A], for which the IC50 at PDE7B turned out to be 0.9 nM; at PDE7A it was 0.3 nM.

As for `S=c1[nH]c2ccccc2c(=S)n1-c1ccccc1` [Formula No. 42A, 3-phenyl-2,4(1H,3H)-quinazolinedithione], the “Mean residual contractile force in % (SEM in %)” value in assay [1] (3.5 μM in the presence of salbutamol 1 μM) is recorded as 48.5 (8.6); n = 7; p < 0.05%.

`O=C1Nc2c(Cl)ccc(O[C@H]3C[C@H](C(=O)O)C3)c2C2(CCCCC2)N1` [Formula No. 44A]: the IC50 stood at 72 nM at PDE7B and 26 nM at PDE7A. In assay [1] (26 nM in the presence of salbutamol 1 μM), the “Mean residual contractile force in % (SEM in %)” value is 63.5 (7.8); n = 6; p < 0.01%.

Turning to `COc1ccc(Cn2c(=O)c3cc(OC(CF)CF)c(F)cc3n(C3CCN(C=O)CC3)c2=O)cc1OC` [Formula No. 55E], the IC50 on PDE7B was found to be 83 nM; at PDE7A, 14.2 nM. In assay [1] (29 nM in the presence of salbutamol 1 μM), the “Mean residual contractile force in % (SEM in %)” value was 69.3 (4.1); n = 5; p < 0.01%.

For `O=CN1CCC(n2c(=O)n(Cc3ccc(-c4cccs4)cc3)c(=O)c3cc(OC(CF)CF)c(F)cc32)CC1` [Formula No. 55J], in the assay with PDE7, the IC50 was less than 100 nM.

As for `CC(C)Cn1c(=O)n(C)c(=O)c2[nH]cnc21` [IBMX, 3-isobutyl-1-methylxanthine, reference compound], on PDE7A, the IC50 is 10000 nM.

In the case of `CC(C)(C)NCC(O)c1ccc(O)c(CO)c1` (stereo not shown) [Salbutamol, reference compound], the “Mean residual contractile force in % (SEM in %)” value in assay [1] (salbutamol alone 1 μM) was 26.5 (3.9); n = 30%.

Turning to `COc1ccc(C2CNC(=O)C2)cc1OC1CCCC1` (stereo not shown) [rolipram], in the assay on PDE7 enzyme, the “inhibition of PDE7 by rolipram” value is on record as “not inhibited”.
